# Results taken from ChEMBL document CHEMBL5131500, “High Plasticity of the Amicetin Biosynthetic Pathway in Streptomyces sp. SHP 22-7 Led to the Discovery of Streptcytosine P and Cytosaminomycins F and G and Facilitated the Production of 12F-Plicacetin” (J Nat Prod, 2022).
# Test system: Staphylococcus aureus
# Test: Antibacterial activity against Staphylococcus aureus NCTC 8325 assessed as bacterial growth inhibition incubated over night by two-fold serial dilution method
# Format: functional
# Conditions: not given
row,SMILES,MIC [µg/mL]
1,CC[C@H](C)CCC(=O)Nc1ccn([C@H]2CC[C@H](O[C@H]3O[C@H](C)[C@@H](N(C)C)[C@H](O)[C@H]3O)[C@@H](C)O2)c(=O)n1,> 32
2,CC(=O)C(C)Nc1ccc(C(=O)Nc2ccn([C@H]3CC[C@H](O[C@H]4O[C@H](C)[C@@H](N(C)C)[C@H](O)[C@H]4O)[C@@H](C)O3)c(=O)n2)cc1 (some centres undefined),> 32
3,C[C@H]1O[C@H](O[C@H]2CC[C@H](n3ccc(NC(=O)c4ccc(N)cc4)nc3=O)O[C@@H]2C)[C@H](O)[C@@H](O)[C@@H]1N(C)C,> 32

# Test system: Klebsiella aerogenes
# Test: Antibacterial activity against Enterobacter aerogenes ATCC 13048 assessed as bacterial growth inhibition incubated over night by two-fold serial dilution method
# Format: functional
# Conditions: not given
row,SMILES,MIC [µg/mL]
1,CC[C@H](C)CCC(=O)Nc1ccn([C@H]2CC[C@H](O[C@H]3O[C@H](C)[C@@H](N(C)C)[C@H](O)[C@H]3O)[C@@H](C)O2)c(=O)n1,> 32
2,CC(=O)C(C)Nc1ccc(C(=O)Nc2ccn([C@H]3CC[C@H](O[C@H]4O[C@H](C)[C@@H](N(C)C)[C@H](O)[C@H]4O)[C@@H](C)O3)c(=O)n2)cc1 (some centres undefined),> 32
3,C[C@H]1O[C@H](O[C@H]2CC[C@H](n3ccc(NC(=O)c4ccc(N)cc4)nc3=O)O[C@@H]2C)[C@H](O)[C@@H](O)[C@@H]1N(C)C,> 32

# Test system: Pseudomonas aeruginosa
# Test: Antibacterial activity against Pseudomonas aeruginosa ATCC 27853 assessed as bacterial growth inhibition incubated over night by two-fold serial dilution method
# Format: functional
# Conditions: not given
row,SMILES,MIC [µg/mL]
1,CC[C@H](C)CCC(=O)Nc1ccn([C@H]2CC[C@H](O[C@H]3O[C@H](C)[C@@H](N(C)C)[C@H](O)[C@H]3O)[C@@H](C)O2)c(=O)n1,> 32
2,CC(=O)C(C)Nc1ccc(C(=O)Nc2ccn([C@H]3CC[C@H](O[C@H]4O[C@H](C)[C@@H](N(C)C)[C@H](O)[C@H]4O)[C@@H](C)O3)c(=O)n2)cc1 (some centres undefined),> 32
3,C[C@H]1O[C@H](O[C@H]2CC[C@H](n3ccc(NC(=O)c4ccc(N)cc4)nc3=O)O[C@@H]2C)[C@H](O)[C@@H](O)[C@@H]1N(C)C,> 32

# Test system: Mycobacterium tuberculosis
# Test: Antitubercular activity against Mycobacterium tuberculosis H37Rv ATCC 25618 assessed as bacterial growth inhibition incubated for 7 days by resazurin microtiter assay
# Format: functional
# Conditions: H37Rv ATCC 25618, 168 h, time 7 day
row,SMILES,MIC95 [µM]
1,CC(=O)C(C)Nc1ccc(C(=O)Nc2ccn([C@H]3CC[C@H](O[C@H]4O[C@H](C)[C@@H](N(C)C)[C@H](O)[C@H]4O)[C@@H](C)O3)c(=O)n2)cc1 (some centres undefined),32
2,C[C@H]1O[C@H](O[C@H]2CC[C@H](n3ccc(NC(=O)c4ccc(N)cc4)nc3=O)O[C@@H]2C)[C@H](O)[C@@H](O)[C@@H]1N(C)C,16

# Test system: Candida albicans
# Test: Antifungal activity against Candida albicans Tu01 assessed as fungal growth inhibition incubated for 48 hrs by broth microdilution method
# Format: functional
# Conditions: not given
row,SMILES,MIC [µg/mL]
1,CC[C@H](C)CCC(=O)Nc1ccn([C@H]2CC[C@H](O[C@H]3O[C@H](C)[C@@H](N(C)C)[C@H](O)[C@H]3O)[C@@H](C)O2)c(=O)n1,> 32
2,CC(=O)C(C)Nc1ccc(C(=O)Nc2ccn([C@H]3CC[C@H](O[C@H]4O[C@H](C)[C@@H](N(C)C)[C@H](O)[C@H]4O)[C@@H](C)O3)c(=O)n2)cc1 (some centres undefined),> 32
3,C[C@H]1O[C@H](O[C@H]2CC[C@H](n3ccc(NC(=O)c4ccc(N)cc4)nc3=O)O[C@@H]2C)[C@H](O)[C@@H](O)[C@@H]1N(C)C,> 32

# Test system: Mycolicibacterium smegmatis
# Test: Antibacterial activity against Mycobacterium smegmatis mc2 155 assessed as bacterial growth inhibition incubated over night by two-fold serial dilution method
# Format: functional
# Conditions: not given
row,SMILES,MIC [µg/mL]
1,CC[C@H](C)CCC(=O)Nc1ccn([C@H]2CC[C@H](O[C@H]3O[C@H](C)[C@@H](N(C)C)[C@H](O)[C@H]3O)[C@@H](C)O2)c(=O)n1,16
2,CC(=O)C(C)Nc1ccc(C(=O)Nc2ccn([C@H]3CC[C@H](O[C@H]4O[C@H](C)[C@@H](N(C)C)[C@H](O)[C@H]4O)[C@@H](C)O3)c(=O)n2)cc1 (some centres undefined),2
3,C[C@H]1O[C@H](O[C@H]2CC[C@H](n3ccc(NC(=O)c4ccc(N)cc4)nc3=O)O[C@@H]2C)[C@H](O)[C@@H](O)[C@@H]1N(C)C,2

# Test system: Enterococcus faecium
# Test: Antibacterial activity against Enterococcus faecium BM4147-1 assessed as bacterial growth inhibition incubated over night by two-fold serial dilution method
# Format: functional
# Conditions: not given
row,SMILES,MIC [µg/mL]
1,CC[C@H](C)CCC(=O)Nc1ccn([C@H]2CC[C@H](O[C@H]3O[C@H](C)[C@@H](N(C)C)[C@H](O)[C@H]3O)[C@@H](C)O2)c(=O)n1,> 32
2,CC(=O)C(C)Nc1ccc(C(=O)Nc2ccn([C@H]3CC[C@H](O[C@H]4O[C@H](C)[C@@H](N(C)C)[C@H](O)[C@H]4O)[C@@H](C)O3)c(=O)n2)cc1 (some centres undefined),> 32
3,C[C@H]1O[C@H](O[C@H]2CC[C@H](n3ccc(NC(=O)c4ccc(N)cc4)nc3=O)O[C@@H]2C)[C@H](O)[C@@H](O)[C@@H]1N(C)C,> 32

# Test system: Staphylococcus aureus
# Test: Antibacterial activity against Staphylococcus aureus ATCC 29213 assessed as bacterial growth inhibition incubated over night by two-fold serial dilution method
# Format: functional
# Conditions: not given
row,SMILES,MIC [µg/mL]
1,CC[C@H](C)CCC(=O)Nc1ccn([C@H]2CC[C@H](O[C@H]3O[C@H](C)[C@@H](N(C)C)[C@H](O)[C@H]3O)[C@@H](C)O2)c(=O)n1,> 32
2,CC(=O)C(C)Nc1ccc(C(=O)Nc2ccn([C@H]3CC[C@H](O[C@H]4O[C@H](C)[C@@H](N(C)C)[C@H](O)[C@H]4O)[C@@H](C)O3)c(=O)n2)cc1 (some centres undefined),> 32
3,C[C@H]1O[C@H](O[C@H]2CC[C@H](n3ccc(NC(=O)c4ccc(N)cc4)nc3=O)O[C@@H]2C)[C@H](O)[C@@H](O)[C@@H]1N(C)C,> 32

# Test system: Escherichia coli
# Test: Antibacterial activity against Escherichia coli ATCC 25922 assessed as bacterial growth inhibition incubated over night by two-fold serial dilution method
# Format: functional
# Conditions: not given
row,SMILES,MIC [µg/mL]
1,CC[C@H](C)CCC(=O)Nc1ccn([C@H]2CC[C@H](O[C@H]3O[C@H](C)[C@@H](N(C)C)[C@H](O)[C@H]3O)[C@@H](C)O2)c(=O)n1,> 32
2,CC(=O)C(C)Nc1ccc(C(=O)Nc2ccn([C@H]3CC[C@H](O[C@H]4O[C@H](C)[C@@H](N(C)C)[C@H](O)[C@H]4O)[C@@H](C)O3)c(=O)n2)cc1 (some centres undefined),> 32
3,C[C@H]1O[C@H](O[C@H]2CC[C@H](n3ccc(NC(=O)c4ccc(N)cc4)nc3=O)O[C@@H]2C)[C@H](O)[C@@H](O)[C@@H]1N(C)C,> 32

# Test system: Acinetobacter baumannii
# Test: Antibacterial activity against Acinetobacter baumannii 09987 assessed as bacterial growth inhibition incubated over night by two-fold serial dilution method
# Format: functional
# Conditions: not given
row,SMILES,MIC [µg/mL]
1,CC[C@H](C)CCC(=O)Nc1ccn([C@H]2CC[C@H](O[C@H]3O[C@H](C)[C@@H](N(C)C)[C@H](O)[C@H]3O)[C@@H](C)O2)c(=O)n1,> 32
2,CC(=O)C(C)Nc1ccc(C(=O)Nc2ccn([C@H]3CC[C@H](O[C@H]4O[C@H](C)[C@@H](N(C)C)[C@H](O)[C@H]4O)[C@@H](C)O3)c(=O)n2)cc1 (some centres undefined),> 32
3,C[C@H]1O[C@H](O[C@H]2CC[C@H](n3ccc(NC(=O)c4ccc(N)cc4)nc3=O)O[C@@H]2C)[C@H](O)[C@@H](O)[C@@H]1N(C)C,> 32

# Test system: Bacillus subtilis
# Test: Antibacterial activity against Bacillus subtilis 168 assessed as bacterial growth inhibition incubated over night by two-fold serial dilution method
# Format: functional
# Conditions: not given
row,SMILES,MIC [µg/mL]
1,CC[C@H](C)CCC(=O)Nc1ccn([C@H]2CC[C@H](O[C@H]3O[C@H](C)[C@@H](N(C)C)[C@H](O)[C@H]3O)[C@@H](C)O2)c(=O)n1,> 32
2,CC(=O)C(C)Nc1ccc(C(=O)Nc2ccn([C@H]3CC[C@H](O[C@H]4O[C@H](C)[C@@H](N(C)C)[C@H](O)[C@H]4O)[C@@H](C)O3)c(=O)n2)cc1 (some centres undefined),> 32
3,C[C@H]1O[C@H](O[C@H]2CC[C@H](n3ccc(NC(=O)c4ccc(N)cc4)nc3=O)O[C@@H]2C)[C@H](O)[C@@H](O)[C@@H]1N(C)C,32

# Test system: Klebsiella pneumoniae
# Test: Antibacterial activity against Klebsiella pneumoniae ATCC 12657 assessed as bacterial growth inhibition incubated over night by two-fold serial dilution method
# Format: functional
# Conditions: not given
row,SMILES,MIC [µg/mL]
1,CC[C@H](C)CCC(=O)Nc1ccn([C@H]2CC[C@H](O[C@H]3O[C@H](C)[C@@H](N(C)C)[C@H](O)[C@H]3O)[C@@H](C)O2)c(=O)n1,> 32
2,CC(=O)C(C)Nc1ccc(C(=O)Nc2ccn([C@H]3CC[C@H](O[C@H]4O[C@H](C)[C@@H](N(C)C)[C@H](O)[C@H]4O)[C@@H](C)O3)c(=O)n2)cc1 (some centres undefined),> 32
3,C[C@H]1O[C@H](O[C@H]2CC[C@H](n3ccc(NC(=O)c4ccc(N)cc4)nc3=O)O[C@@H]2C)[C@H](O)[C@@H](O)[C@@H]1N(C)C,> 32

# Test system: Nakaseomyces glabratus
# Test: Antifungal activity against Candida glabrata Tu04 assessed as fungal growth inhibition incubated for 48 hrs by broth microdilution method
# Format: functional
# Conditions: not given
row,SMILES,MIC [µg/mL]
1,CC[C@H](C)CCC(=O)Nc1ccn([C@H]2CC[C@H](O[C@H]3O[C@H](C)[C@@H](N(C)C)[C@H](O)[C@H]3O)[C@@H](C)O2)c(=O)n1,> 32
2,CC(=O)C(C)Nc1ccc(C(=O)Nc2ccn([C@H]3CC[C@H](O[C@H]4O[C@H](C)[C@@H](N(C)C)[C@H](O)[C@H]4O)[C@@H](C)O3)c(=O)n2)cc1 (some centres undefined),> 32
3,C[C@H]1O[C@H](O[C@H]2CC[C@H](n3ccc(NC(=O)c4ccc(N)cc4)nc3=O)O[C@@H]2C)[C@H](O)[C@@H](O)[C@@H]1N(C)C,> 32

# Test system: Escherichia coli
# Test: Antimicrobial activity against Escherichia coli MRE600 assessed as inhibition of translation using luciferin as substrate incubated for 2 hrs by chemiluminescence based cell free assay
# Format: functional
# Conditions: MRE600, 2 h
row,SMILES,IC50 [µg/mL]
1,CC[C@H](C)CCC(=O)Nc1ccn([C@H]2CC[C@H](O[C@H]3O[C@H](C)[C@@H](N(C)C)[C@H](O)[C@H]3O)[C@@H](C)O2)c(=O)n1,9.5
2,CC(=O)C(C)Nc1ccc(C(=O)Nc2ccn([C@H]3CC[C@H](O[C@H]4O[C@H](C)[C@@H](N(C)C)[C@H](O)[C@H]4O)[C@@H](C)O3)c(=O)n2)cc1 (some centres undefined),13
3,C[C@H]1O[C@H](O[C@H]2CC[C@H](n3ccc(NC(=O)c4ccc(N)cc4)nc3=O)O[C@@H]2C)[C@H](O)[C@@H](O)[C@@H]1N(C)C,12

# Test system: HeLa
# Test: Cytotoxicity against human HeLa cells assessed as reduction in cell viability after 24 hrs by resazurin dye based assay
# Format: functional
# Conditions: not given
row,SMILES,IC50 [µg/mL]
1,CC[C@H](C)CCC(=O)Nc1ccn([C@H]2CC[C@H](O[C@H]3O[C@H](C)[C@@H](N(C)C)[C@H](O)[C@H]3O)[C@@H](C)O2)c(=O)n1,> 64
2,CC(=O)C(C)Nc1ccc(C(=O)Nc2ccn([C@H]3CC[C@H](O[C@H]4O[C@H](C)[C@@H](N(C)C)[C@H](O)[C@H]4O)[C@@H](C)O3)c(=O)n2)cc1 (some centres undefined),16
3,C[C@H]1O[C@H](O[C@H]2CC[C@H](n3ccc(NC(=O)c4ccc(N)cc4)nc3=O)O[C@@H]2C)[C@H](O)[C@@H](O)[C@@H]1N(C)C,16
